Measured values from ChEMBL document CHEMBL4765362, “Thirty Years of HDAC Inhibitors: 2020 Insight and Hindsight” (J Med Chem, 2020).
Each block holds one molecule with its values, some of them ahead of it.

Legend:
Histone deacetylase 5 = Histone deacetylase 5 (Homo sapiens, UniProt Q9UQL6); assay: Inhibition of human HDAC5 using acetyl-lysine tripeptide as substrate preincubated for 10 mins followed by substrate addition and shaken for 5 secs and measured over 30 mins
[1] = target: T1, Protein deacetylase HDAC6 (Homo sapiens, UniProt Q9UBN7); assay: Inhibition of HDAC6 (unknown origin) using acetyl-lysine tripeptide as substrate preincubated for 10 mins followed by substrate addition and shaken for 5 secs and measured over 30 mins
T1 sequence (Q9UBN7 whole entry): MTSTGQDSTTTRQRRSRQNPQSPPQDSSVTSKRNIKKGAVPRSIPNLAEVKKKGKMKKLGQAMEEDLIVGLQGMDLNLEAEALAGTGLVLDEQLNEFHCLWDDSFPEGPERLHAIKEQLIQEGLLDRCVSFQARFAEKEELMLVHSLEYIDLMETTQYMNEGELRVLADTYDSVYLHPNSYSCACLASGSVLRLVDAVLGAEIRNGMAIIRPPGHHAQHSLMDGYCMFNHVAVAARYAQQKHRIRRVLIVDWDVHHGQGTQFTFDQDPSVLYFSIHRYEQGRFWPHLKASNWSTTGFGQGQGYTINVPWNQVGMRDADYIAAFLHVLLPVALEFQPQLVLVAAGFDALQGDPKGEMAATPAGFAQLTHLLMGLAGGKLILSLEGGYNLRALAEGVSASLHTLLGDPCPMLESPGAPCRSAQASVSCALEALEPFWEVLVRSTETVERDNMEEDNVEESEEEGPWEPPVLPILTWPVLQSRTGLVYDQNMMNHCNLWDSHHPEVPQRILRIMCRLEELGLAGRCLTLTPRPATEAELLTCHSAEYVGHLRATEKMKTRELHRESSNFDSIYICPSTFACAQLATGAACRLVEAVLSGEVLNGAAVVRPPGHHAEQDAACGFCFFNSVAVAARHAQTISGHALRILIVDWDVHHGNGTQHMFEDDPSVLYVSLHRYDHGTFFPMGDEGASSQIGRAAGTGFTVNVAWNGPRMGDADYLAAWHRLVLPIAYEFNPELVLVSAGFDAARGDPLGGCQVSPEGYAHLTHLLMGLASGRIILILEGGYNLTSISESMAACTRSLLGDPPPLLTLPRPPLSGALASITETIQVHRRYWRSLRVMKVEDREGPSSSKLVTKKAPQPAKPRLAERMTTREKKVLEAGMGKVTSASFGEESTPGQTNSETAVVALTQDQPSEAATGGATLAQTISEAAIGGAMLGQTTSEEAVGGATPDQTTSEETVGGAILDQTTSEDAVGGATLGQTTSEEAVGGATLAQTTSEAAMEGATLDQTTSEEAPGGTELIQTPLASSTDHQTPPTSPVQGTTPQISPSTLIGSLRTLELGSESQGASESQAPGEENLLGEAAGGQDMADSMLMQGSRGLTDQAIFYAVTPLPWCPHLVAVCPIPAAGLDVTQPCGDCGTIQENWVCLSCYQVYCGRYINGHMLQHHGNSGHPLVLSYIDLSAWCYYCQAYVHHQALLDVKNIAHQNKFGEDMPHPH

Histone deacetylase 2 = Histone deacetylase 2 (Homo sapiens, UniProt Q92769); assay: Inhibition of human HDAC2 expressed in Sf9 cells using acetyl-lysine tripeptide as substrate preincubated for 10 mins followed by substrate addition and shaken for 5 secs and measured over 30 mins
[2] = target: Histone deacetylase 3/Nuclear receptor corepressor 2 (HDAC3/NCoR2) (Homo sapiens, UniProt O15379); assay: Inhibition of His-tagged GST-fused human HDAC3/NcoR2 expressed in sf9 cells using acetyl-lysine tripeptide as substrate preincubated for 10 mins followed by substrate addition and shaken for 5 secs and measured over 30 mins
Chain of Histone deacetylase 3/Nuclear receptor corepressor 2 (HDAC3/NCoR2) (O15379 whole entry, the tested form may be a part): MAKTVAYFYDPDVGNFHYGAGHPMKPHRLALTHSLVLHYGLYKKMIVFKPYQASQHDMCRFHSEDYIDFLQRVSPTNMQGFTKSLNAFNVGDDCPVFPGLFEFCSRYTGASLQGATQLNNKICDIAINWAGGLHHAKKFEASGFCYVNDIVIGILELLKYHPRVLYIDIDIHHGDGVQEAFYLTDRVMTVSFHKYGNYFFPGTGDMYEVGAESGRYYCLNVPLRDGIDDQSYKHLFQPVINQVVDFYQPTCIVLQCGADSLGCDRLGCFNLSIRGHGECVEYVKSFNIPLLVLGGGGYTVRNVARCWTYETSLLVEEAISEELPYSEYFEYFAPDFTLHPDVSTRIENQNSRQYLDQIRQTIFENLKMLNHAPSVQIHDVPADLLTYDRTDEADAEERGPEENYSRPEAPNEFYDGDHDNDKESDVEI
Chain of Histone deacetylase 3/Nuclear receptor corepressor 2 (HDAC3/NCoR2) (Q9Y618 whole entry, further chain, the tested form may be a part): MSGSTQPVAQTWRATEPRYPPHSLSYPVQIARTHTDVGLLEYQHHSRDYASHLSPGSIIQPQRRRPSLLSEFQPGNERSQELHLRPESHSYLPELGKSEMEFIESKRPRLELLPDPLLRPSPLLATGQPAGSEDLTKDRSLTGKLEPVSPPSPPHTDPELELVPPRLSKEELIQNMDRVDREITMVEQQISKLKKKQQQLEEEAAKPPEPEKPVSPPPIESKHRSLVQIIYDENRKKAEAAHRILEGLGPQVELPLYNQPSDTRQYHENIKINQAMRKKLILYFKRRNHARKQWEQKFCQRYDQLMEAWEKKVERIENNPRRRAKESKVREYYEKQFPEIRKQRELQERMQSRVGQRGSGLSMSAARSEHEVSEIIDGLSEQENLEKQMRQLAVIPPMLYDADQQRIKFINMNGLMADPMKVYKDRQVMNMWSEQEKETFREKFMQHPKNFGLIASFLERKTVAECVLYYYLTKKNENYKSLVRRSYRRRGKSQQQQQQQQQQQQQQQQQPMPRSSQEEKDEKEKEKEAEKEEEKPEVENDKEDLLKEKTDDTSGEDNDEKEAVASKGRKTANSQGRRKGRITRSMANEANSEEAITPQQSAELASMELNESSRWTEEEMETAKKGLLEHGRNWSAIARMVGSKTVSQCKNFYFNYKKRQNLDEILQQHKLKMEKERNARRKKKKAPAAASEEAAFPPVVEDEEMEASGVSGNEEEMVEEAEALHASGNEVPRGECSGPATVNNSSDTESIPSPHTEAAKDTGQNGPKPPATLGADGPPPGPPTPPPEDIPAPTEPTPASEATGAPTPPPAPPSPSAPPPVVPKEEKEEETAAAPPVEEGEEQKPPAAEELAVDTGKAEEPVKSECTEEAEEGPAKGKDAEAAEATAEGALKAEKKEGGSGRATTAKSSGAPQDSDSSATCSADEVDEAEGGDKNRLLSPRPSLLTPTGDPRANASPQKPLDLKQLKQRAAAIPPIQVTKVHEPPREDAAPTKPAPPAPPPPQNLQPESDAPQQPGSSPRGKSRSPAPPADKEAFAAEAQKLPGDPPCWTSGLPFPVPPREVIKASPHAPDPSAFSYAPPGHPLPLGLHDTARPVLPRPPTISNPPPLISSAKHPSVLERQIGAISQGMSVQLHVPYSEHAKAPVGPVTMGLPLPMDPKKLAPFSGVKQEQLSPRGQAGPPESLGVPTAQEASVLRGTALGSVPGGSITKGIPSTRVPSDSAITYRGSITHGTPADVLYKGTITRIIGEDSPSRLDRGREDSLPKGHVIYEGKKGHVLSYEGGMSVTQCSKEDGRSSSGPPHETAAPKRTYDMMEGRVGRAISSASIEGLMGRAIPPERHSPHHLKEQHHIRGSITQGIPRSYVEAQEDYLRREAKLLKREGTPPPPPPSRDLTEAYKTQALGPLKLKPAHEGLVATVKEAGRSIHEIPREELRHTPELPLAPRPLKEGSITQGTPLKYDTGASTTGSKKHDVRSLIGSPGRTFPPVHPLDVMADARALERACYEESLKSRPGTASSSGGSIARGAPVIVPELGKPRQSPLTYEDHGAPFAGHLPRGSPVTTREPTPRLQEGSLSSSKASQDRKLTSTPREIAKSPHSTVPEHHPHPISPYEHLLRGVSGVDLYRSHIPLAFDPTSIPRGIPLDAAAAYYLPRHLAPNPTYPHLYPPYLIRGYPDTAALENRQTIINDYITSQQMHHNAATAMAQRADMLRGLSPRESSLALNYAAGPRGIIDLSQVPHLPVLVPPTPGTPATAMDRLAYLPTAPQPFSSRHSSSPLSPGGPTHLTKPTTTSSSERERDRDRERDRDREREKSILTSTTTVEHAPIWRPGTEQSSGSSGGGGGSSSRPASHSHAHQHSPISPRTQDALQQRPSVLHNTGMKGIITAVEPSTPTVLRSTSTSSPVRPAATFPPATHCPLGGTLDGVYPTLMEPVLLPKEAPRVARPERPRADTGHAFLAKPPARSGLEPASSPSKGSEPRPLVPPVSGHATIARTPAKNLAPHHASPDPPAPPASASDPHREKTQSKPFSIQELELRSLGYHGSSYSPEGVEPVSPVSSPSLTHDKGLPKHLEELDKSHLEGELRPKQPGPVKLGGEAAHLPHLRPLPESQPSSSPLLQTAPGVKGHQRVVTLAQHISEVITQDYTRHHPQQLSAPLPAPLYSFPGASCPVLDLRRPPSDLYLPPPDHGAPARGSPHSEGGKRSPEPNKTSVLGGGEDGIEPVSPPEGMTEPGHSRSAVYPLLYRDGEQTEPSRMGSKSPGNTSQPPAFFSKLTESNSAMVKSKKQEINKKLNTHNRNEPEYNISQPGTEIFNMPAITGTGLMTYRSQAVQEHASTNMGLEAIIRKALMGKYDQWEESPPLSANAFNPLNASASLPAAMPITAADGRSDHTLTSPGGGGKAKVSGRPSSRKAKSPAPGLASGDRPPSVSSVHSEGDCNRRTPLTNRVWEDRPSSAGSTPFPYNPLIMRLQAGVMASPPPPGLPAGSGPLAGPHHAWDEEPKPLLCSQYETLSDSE

Histone deacetylase 7 = target: T2, Histone deacetylase 7 (Homo sapiens, UniProt Q8WUI4); assay: Inhibition of human N-terminal GST-tagged HDAC7 (518 to end residues) expressed in baculovirus infected sf9 cells using acetyl-lysine tripeptide as substrate preincubated for 10 mins followed by substrate addition and shaken for 5 secs and measured over 30 mins
T2 sequence (Q8WUI4 whole entry): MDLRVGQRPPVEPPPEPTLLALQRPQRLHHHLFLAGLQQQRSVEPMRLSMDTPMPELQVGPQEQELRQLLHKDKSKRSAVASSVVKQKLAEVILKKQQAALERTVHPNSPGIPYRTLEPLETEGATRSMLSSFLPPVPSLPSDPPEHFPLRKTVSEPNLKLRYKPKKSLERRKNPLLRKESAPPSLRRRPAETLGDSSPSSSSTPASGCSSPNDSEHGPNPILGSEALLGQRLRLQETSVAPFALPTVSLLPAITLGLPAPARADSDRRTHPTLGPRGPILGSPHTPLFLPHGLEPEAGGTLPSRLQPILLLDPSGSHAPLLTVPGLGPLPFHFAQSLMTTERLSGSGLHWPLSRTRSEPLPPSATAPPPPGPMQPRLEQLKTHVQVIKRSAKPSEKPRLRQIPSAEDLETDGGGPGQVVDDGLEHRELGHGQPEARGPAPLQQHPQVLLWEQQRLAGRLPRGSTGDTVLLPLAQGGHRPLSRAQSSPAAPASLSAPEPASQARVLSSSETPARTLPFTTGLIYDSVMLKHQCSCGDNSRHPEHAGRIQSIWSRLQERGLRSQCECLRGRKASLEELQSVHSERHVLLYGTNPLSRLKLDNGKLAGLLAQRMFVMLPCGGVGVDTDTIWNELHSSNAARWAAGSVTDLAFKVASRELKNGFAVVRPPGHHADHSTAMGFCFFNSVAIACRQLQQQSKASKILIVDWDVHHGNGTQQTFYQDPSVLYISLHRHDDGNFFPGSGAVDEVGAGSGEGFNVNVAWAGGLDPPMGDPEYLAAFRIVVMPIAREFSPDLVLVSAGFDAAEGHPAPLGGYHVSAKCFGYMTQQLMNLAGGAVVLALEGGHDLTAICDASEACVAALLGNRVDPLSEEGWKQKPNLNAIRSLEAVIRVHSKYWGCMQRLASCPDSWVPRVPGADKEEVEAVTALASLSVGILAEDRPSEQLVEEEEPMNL

Histone deacetylase 8 = target: T3, Histone deacetylase 8 (Homo sapiens, UniProt Q9BY41); assay: Inhibition of recombinant human C-terminal His-tagged HDAC8 expressed in baculovirus infected sf9 cells using acetyl-lysine tripeptide as substrate preincubated for 10 mins followed by substrate addition and shaken for 5 secs and measured over 30 mins
T3 sequence (Q9BY41 whole entry): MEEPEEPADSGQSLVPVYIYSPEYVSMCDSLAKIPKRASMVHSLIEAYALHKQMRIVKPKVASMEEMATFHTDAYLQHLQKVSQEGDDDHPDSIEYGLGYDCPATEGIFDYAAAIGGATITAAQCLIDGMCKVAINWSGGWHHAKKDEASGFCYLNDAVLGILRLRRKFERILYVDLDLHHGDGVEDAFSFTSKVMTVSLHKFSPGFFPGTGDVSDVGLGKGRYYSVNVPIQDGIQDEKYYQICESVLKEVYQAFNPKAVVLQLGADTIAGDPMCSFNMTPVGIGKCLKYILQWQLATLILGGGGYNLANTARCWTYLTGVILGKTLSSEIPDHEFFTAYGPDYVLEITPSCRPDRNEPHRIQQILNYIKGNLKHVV

Histone deacetylase 9 = Histone deacetylase 9 (Homo sapiens, UniProt Q9UKV0); assay: Inhibition of C-terminal His-tagged human HDAC9 (604 to 1066 residues) expressed in baculovirus infected sf9 cells using acetyl-lysine tripeptide as substrate preincubated for 10 mins followed by substrate addition and shaken for 5 secs and measured over 30 mins
Chain of Histone deacetylase 9 (Q9UKV0 whole entry, the tested form may be a part): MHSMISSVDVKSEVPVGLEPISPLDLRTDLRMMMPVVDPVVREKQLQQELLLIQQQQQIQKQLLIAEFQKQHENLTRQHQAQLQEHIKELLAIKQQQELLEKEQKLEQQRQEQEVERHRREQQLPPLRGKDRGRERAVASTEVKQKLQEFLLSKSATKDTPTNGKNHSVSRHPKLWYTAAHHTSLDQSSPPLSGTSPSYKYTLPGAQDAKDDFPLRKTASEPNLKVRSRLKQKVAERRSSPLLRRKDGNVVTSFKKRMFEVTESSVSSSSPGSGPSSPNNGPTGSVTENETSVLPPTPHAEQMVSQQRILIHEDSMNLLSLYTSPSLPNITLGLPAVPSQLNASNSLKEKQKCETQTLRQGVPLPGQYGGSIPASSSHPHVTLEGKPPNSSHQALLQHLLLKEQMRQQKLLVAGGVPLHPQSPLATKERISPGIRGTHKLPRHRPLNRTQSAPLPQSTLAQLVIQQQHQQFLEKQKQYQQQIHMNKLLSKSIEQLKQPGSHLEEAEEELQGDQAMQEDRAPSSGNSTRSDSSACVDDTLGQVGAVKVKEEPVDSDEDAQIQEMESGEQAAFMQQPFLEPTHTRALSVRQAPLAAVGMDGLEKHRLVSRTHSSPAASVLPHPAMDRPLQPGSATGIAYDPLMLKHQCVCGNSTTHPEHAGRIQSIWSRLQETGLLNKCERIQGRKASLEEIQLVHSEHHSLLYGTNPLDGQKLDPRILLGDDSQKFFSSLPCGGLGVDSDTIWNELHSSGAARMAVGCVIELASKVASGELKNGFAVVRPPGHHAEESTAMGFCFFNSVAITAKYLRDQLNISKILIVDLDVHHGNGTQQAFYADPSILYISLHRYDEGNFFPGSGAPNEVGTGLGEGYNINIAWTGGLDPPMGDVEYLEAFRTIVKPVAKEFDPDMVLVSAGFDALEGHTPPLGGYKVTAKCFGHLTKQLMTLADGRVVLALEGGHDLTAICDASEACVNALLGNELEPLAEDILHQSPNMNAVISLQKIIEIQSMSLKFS

Histone deacetylase 4 = Histone deacetylase 4 (Homo sapiens, UniProt P56524); assay: Inhibition of human HDAC4 expressed in baculovirus infected sf9 cells using acetyl-lysine tripeptide as substrate preincubated for 10 mins followed by substrate addition and shaken for 5 secs and measured over 30 mins
Histone deacetylase 11 = target: T4, Histone deacetylase 11 (Homo sapiens, UniProt Q96DB2); assay: Inhibition of HDAC11 (unknown origin)
T4 sequence (Q96DB2 whole entry): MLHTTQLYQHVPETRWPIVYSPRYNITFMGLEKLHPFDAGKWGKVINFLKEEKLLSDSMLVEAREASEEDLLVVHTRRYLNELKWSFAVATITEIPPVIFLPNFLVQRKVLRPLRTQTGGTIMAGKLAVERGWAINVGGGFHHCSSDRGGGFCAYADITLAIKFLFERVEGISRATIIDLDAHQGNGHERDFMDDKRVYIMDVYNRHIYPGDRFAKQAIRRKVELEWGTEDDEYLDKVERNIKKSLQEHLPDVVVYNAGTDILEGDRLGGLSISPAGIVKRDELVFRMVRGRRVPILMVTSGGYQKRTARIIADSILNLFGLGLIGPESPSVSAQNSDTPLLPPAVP

[3] = target: T5, Polyamine deacetylase HDAC10 (Homo sapiens, UniProt Q969S8); assay: Inhibition of HDAC10 (unknown origin)
T5 sequence (Q969S8 whole entry): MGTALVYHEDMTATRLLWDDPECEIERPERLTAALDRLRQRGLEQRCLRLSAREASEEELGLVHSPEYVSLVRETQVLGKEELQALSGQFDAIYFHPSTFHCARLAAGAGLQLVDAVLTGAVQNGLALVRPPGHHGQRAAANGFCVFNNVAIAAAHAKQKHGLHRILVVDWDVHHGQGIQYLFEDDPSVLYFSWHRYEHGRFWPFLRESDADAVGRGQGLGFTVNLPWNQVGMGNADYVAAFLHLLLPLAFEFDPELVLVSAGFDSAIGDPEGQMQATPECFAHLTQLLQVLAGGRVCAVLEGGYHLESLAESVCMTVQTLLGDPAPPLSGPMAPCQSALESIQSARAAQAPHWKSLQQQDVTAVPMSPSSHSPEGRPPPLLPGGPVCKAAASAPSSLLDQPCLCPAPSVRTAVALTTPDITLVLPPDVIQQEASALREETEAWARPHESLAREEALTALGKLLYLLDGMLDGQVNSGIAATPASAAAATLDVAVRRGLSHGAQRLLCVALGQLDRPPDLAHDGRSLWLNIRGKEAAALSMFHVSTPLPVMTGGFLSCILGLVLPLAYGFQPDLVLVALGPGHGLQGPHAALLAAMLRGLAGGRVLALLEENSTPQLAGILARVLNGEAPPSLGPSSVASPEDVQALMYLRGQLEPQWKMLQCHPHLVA

[4] = target: T6, Polyamine deacetylase HDAC10 (Danio rerio, UniProt F1QCV2); assay: Inhibition of zebrafish HDAC10 (2 to 675 residues) expressed in Escherichia coli BL21(DE3) cells using N-acetylputrescine as substrate preincubated for 10 mins followed by substrate and measured after 45 to 60 mins by liquid chromatography-mass spectrometry
T6 sequence (F1QCV2 whole entry): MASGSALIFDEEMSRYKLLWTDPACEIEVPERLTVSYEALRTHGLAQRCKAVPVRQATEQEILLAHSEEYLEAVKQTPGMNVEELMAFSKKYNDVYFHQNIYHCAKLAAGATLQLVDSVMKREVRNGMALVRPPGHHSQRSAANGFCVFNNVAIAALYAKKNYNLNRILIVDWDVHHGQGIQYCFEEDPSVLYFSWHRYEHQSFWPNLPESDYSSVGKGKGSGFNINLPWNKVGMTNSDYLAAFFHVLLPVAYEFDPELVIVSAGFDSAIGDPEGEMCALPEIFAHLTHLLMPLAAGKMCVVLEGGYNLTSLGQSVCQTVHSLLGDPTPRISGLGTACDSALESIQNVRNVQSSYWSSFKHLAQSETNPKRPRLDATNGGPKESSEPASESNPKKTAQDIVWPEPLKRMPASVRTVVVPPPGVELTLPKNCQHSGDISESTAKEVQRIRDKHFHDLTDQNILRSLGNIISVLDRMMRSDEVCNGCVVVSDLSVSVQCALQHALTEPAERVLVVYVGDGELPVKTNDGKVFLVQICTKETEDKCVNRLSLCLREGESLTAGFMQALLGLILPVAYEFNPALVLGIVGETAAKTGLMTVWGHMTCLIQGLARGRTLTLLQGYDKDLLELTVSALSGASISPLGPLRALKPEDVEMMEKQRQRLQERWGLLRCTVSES

Chain of Histone deacetylase 5 (Q9UQL6 whole entry): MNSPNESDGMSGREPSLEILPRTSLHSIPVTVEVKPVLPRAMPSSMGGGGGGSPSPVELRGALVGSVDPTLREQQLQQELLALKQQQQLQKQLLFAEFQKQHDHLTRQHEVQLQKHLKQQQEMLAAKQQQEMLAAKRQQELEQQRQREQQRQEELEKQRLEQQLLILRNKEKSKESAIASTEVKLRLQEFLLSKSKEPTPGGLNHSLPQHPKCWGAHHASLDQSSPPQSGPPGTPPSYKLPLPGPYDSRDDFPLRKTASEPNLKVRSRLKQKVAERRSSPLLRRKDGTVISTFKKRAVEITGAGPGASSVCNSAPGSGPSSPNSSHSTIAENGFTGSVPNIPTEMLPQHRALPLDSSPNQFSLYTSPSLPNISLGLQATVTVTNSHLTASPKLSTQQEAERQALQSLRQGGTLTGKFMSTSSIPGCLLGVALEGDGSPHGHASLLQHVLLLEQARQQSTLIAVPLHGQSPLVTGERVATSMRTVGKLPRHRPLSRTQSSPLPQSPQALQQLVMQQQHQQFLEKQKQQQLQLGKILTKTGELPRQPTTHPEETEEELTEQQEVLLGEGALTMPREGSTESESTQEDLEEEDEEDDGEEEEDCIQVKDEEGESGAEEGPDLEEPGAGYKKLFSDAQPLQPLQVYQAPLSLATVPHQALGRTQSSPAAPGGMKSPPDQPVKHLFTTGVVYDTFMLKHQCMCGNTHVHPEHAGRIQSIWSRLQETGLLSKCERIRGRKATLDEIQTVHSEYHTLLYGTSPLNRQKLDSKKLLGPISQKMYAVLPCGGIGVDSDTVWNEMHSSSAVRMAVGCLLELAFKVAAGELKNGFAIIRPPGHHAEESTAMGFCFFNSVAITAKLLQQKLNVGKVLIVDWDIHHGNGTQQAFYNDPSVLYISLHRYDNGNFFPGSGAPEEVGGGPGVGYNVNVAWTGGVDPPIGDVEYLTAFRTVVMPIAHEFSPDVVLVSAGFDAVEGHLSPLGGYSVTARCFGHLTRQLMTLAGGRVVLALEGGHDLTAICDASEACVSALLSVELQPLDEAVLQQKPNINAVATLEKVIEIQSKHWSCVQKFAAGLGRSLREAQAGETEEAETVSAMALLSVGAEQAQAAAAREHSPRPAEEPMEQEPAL

Structure (SMILES): Nc1ccc(-c2cccs2)cc1NC(=O)c1ccc2nc(N3CCNCC3)ccc2c1
- IC50 (Histone deacetylase 5): > 20 µM
- IC50 [1]: > 20 µM
- IC50 (Histone deacetylase 2): 26 nM
- IC50 [2]: 1000 nM
- IC50 (Histone deacetylase 7): > 20 µM
- IC50 (Histone deacetylase 8): > 20 µM
- IC50 (Histone deacetylase 9): > 20 µM
- IC50 (Histone deacetylase 4): > 20 µM

- IC50 (Histone deacetylase 11): 400 nM
- IC50 [3]: 100 nM
Structure (SMILES): Nc1cc(F)ccc1NC(=O)c1ccc(CNC(=O)/C=C/c2cccnc2)cc1 [TUCIDINOSTAT]

- IC50 [4]: 120 nM
Structure (SMILES): NCCCNCCCCCC(=O)NO
